# Columns and labels:
# Assay type in all cases: cell-based
# human TLR7 = molecular target: T1, human TLR7 (Homo sapiens, UniProt Q9NYK1); assay: TLR7 inhibition reporter assay (HEK-Blue cells, SEAP reporter, gardiquimod stimulation); conditions: HEK-Blue cells overexpressing human TLR7, SEAP reporter, gardiquimod 7.5 μM
# T1 construct: host or cells: HEK-Blue cells (HEK293-derived reporter line)
# T1 sequence (Q9NYK1 27-1049): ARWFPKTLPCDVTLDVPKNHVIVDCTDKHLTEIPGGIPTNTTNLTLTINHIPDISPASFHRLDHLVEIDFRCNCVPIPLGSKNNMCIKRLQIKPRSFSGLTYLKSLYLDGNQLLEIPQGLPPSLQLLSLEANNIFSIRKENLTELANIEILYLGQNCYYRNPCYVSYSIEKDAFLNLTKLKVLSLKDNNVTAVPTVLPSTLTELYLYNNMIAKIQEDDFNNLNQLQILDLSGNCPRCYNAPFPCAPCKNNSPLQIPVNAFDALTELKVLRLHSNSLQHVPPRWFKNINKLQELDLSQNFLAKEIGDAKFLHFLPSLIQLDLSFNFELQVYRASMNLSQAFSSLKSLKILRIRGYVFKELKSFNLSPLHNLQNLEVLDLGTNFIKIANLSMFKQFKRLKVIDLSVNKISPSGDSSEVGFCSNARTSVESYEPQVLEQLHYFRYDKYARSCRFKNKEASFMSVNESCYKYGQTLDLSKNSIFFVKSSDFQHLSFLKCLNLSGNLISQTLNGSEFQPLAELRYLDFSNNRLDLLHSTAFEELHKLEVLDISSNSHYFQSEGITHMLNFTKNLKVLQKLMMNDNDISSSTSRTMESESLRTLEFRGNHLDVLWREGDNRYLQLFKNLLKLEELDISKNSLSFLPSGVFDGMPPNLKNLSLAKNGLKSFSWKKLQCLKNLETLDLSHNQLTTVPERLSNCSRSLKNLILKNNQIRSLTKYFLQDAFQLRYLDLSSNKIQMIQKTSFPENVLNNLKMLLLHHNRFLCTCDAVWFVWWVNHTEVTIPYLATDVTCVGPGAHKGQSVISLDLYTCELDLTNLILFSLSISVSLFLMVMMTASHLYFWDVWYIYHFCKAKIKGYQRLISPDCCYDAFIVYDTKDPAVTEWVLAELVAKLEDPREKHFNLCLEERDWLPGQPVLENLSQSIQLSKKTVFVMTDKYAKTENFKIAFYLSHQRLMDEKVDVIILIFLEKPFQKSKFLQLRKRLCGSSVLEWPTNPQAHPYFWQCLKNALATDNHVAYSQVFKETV
# Procedure, shortened: (§1)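 Agonists (final): TLR7 gardiquimod 7.5 μM; TLR8 R848 15.9 μM; TLR9 ODN2006 5 nM. HEK-Blue reporter cells, 30 min RT compound pre-incubation, 0.05 nM–50 μM dose range, 22 h at 37 °C, colorimetric SEAP detection medium. % inhibition relative to agonist+DMSO and known-inhibitor wells.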
# human TLR8 = molecular target: T2, human TLR8 (Homo sapiens, UniProt Q9NR97); assay: TLR8 inhibition reporter assay (HEK-Blue cells, SEAP reporter, R848 stimulation); conditions: HEK-Blue cells overexpressing human TLR8, SEAP reporter, R848 15.9 μM
# T2 construct: host or cells: HEK-Blue cells (HEK293-derived reporter line)
# T2 sequence (Q9NR97 27-1041): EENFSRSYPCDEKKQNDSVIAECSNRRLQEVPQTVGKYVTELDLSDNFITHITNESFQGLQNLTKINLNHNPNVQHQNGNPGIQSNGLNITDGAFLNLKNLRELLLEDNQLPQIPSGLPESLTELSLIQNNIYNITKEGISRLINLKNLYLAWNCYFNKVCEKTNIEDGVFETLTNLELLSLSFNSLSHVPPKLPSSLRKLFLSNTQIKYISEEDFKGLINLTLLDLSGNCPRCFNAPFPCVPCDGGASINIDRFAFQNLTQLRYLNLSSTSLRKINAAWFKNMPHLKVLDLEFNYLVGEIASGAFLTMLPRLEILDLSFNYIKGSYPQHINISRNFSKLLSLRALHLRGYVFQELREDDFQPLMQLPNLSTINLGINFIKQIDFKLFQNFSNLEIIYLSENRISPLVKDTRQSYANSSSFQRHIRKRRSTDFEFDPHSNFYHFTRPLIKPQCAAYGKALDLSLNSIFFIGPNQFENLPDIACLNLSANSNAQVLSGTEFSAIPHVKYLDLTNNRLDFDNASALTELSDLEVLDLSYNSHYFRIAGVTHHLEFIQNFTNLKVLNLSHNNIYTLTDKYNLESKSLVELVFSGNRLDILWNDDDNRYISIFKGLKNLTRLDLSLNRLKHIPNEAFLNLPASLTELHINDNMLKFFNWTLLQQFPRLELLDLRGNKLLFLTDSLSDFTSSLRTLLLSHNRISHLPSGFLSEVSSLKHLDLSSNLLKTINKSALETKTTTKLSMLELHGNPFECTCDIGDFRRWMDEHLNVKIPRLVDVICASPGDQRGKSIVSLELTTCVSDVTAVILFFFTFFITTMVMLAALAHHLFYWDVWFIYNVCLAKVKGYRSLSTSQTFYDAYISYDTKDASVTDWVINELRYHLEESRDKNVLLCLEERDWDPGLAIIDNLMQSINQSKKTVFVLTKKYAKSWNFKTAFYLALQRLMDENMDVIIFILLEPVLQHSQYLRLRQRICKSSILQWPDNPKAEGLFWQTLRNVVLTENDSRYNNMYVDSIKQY
# Procedure, shortened: as §1
# human TLR9 = molecular target: T3, human TLR9 (Homo sapiens, UniProt Q9NR96); assay: TLR9 inhibition reporter assay (HEK-Blue cells, SEAP reporter, ODN2006 stimulation); conditions: HEK-Blue cells overexpressing human TLR9, SEAP reporter, ODN2006 5 nM
# T3 construct: host or cells: HEK-Blue cells (HEK293-derived reporter line)
# T3 sequence (Q9NR96 26-1032): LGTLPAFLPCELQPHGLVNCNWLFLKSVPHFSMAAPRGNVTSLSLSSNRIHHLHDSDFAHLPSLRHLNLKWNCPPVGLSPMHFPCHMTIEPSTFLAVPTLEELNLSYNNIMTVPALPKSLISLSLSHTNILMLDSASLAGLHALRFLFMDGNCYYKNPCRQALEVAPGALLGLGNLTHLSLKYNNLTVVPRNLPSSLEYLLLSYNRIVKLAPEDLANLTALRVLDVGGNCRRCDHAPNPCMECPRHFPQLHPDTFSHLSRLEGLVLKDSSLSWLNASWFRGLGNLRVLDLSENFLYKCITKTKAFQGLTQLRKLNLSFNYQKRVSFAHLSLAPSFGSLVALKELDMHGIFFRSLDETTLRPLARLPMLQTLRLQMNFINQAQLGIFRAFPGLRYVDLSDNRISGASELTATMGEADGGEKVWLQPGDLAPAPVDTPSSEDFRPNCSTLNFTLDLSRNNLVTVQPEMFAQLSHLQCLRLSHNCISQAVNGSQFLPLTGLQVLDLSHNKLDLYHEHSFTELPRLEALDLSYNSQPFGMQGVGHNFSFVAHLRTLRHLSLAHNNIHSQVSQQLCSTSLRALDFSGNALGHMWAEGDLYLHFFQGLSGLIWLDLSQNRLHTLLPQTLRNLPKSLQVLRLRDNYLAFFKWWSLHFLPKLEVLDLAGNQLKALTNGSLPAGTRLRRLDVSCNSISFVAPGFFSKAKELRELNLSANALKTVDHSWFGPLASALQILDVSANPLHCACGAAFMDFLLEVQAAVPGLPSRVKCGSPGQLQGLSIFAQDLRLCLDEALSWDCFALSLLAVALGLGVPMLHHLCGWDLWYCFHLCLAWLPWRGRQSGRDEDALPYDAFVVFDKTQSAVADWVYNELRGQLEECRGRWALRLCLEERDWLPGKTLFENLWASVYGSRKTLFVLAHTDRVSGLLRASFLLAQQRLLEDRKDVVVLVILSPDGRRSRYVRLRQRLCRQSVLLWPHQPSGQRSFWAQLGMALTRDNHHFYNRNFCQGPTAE
# Procedure, shortened: as §1
IC50 (human TLR7) [nM],IC50 (human TLR8) [nM],IC50 (human TLR9) [nM],Structure (SMILES)
1000 to 50000,< 100,< 100,"Cc1c(-c2ncnc3[nH]cnc23)[nH]c2ccc(C3CCN(C4CCN(C(C)C)CC4)CC3)cc12 [Example 815, 6-(5-(1′-isopropyl-[1,4′-bipiperidin]-4-yl)-3-methyl-1H-indol-2-yl)-9H-purine]"
< 100,100 to 1000,1000 to 50000,"COc1cc2[nH]c(-c3ccnc4[nH]ncc34)c(C(C)C)c2cc1C1CCNCC1 [Example 255, 4-(3-isopropyl-6-methoxy-5-(piperidin-4-yl)-1H-indol-2-yl)-1H-pyrazolo[3,4-b]pyridine]"
< 100,< 100,1000 to 50000,"Cc1c(-c2[nH]c3ccc(C4CCN(CCS(C)(=O)=O)CC4)cc3c2C(C)C)cn2nnnc2c1C [Example 786, 6-(3-isopropyl-5-(1-(2-(methylsulfonyl)ethyl)piperidin-4-yl)-1H-indol-2-yl)-7,8-dimethyltetrazolo[1,5-a]pyridine]"
< 100,< 100,1000 to 50000,"CC(C)c1c(-c2ccnc3[nH]ncc23)[nH]c2ccc(C3CCN(C4CCOCC4)CC3)cc12 [Example 682, 4-(3-isopropyl-5-(1-(tetrahydro-2H-pyran-4-yl)piperidin-4-yl)-1H-indol-2-yl)-1H-pyrazolo[3,4-b]pyridine]"
< 100,< 100,100 to 1000,"Cc1cc(-c2[nH]c3ccc(C4CCN(C(=O)CN(C)C)CC4)cc3c2C(C)C)c2ccccc2n1 [Example 533, 2-(dimethylamino)-1-(4-(3-isopropyl-2-(2-methylquinolin-4-yl)-1H-indol-5-yl)piperidin-1-yl)ethan-1-one]"
> 3130,> 3130,> 50000,"CC(C)c1c(-c2cnc3ccnn3c2)[nH]c2ccc(C3CCN(C(=O)C[C@H](C)O)CC3)cc12 [Example 595, (S)-3-hydroxy-1-(4-(3-isopropyl-2-(pyrazolo[1,5-a]pyrimidin-6-yl)-1H-indol-5-yl)piperidin-1-yl)butan-1-one]"
< 100,< 100,1000 to 50000,"Cc1cc(-c2[nH]c3ccc(C4CCN(C(=O)CN(C)C)CC4)cc3c2C(C)C)cc2ncnn12 [Example 536, 2-(dimethylamino)-1-(4-(3-isopropyl-2-(5-methyl-[1,2,4]triazolo[1,5-a]pyridin-7-yl)-1H-indol-5-yl)piperidin-1-yl)ethan-1-one]"

# The remaining lines, values behind:
Structure (SMILES),IC50 (human TLR7) [nM],IC50 (human TLR8) [nM],IC50 (human TLR9) [nM]
"Cc1c(-c2[nH]c3ccc(C4CCN(CC(=O)N(C)C)CC4)cc3c2C(C)C)cn2ccnc2c1Cl [Example 415, 2-(4-(2-(8-chloro-7-methylimidazo[1,2-a]pyridin-6-yl)-3-isopropyl-1H-indol-5-yl)piperidin-1-yl)-N,N-dimethylacetamide]",< 100,< 100,1000 to 50000
"CC(C)c1c(-c2nc3cnccn3n2)[nH]c2ccc(C3CCNCC3)cc12 [Example 195, 2-(3-isopropyl-5-(piperidin-4-yl)-1H-indol-2-yl)-[1,2,4]triazolo[1,5-a]pyrazine]",1000 to 50000,< 100,1000 to 50000
"CNC(=O)CN1CCC(c2ccc3[nH]c(-c4cc(Cl)c5ncccc5c4)c(C(C)C)c3c2)CC1 [Example 381, 2-(4-(2-(8-chloroquinolin-6-yl)-3-isopropyl-1H-indol-5-yl)piperidin-1-yl)-N-methylacetamide]",< 100,100 to 1000,1000 to 50000
"COc1cc(-c2[nH]c3ccc(C4CCN(C5CCOCC5)CC4)cc3c2C(C)C)nn2ncnc12 [Example 692, 6-(3-isopropyl-5-(1-(tetrahydro-2H-pyran-4-yl)piperidin-4-yl)-1H-indol-2-yl)-8-methoxy-[1,2,4]triazolo[1,5-b]pyridazine]",< 100,< 100,1000 to 50000
"CC(C)c1c(-c2ccnc3cnn(C)c23)[nH]c2ccc(C3CCNCC3)cc12 [Example 42, 7-(3-isopropyl-5-(piperidin-4-yl)-1H-indol-2-yl)-1-methyl-1H-pyrazolo[4,3-b]pyridine]",1000 to 50000,100 to 1000,1000 to 50000
"CC(C)c1c(-c2ccnc3[nH]ncc23)[nH]c2ccc(C3CCN(C(=O)CN(C)C)CC3)cc12 [Example 449, 2-(dimethylamino)-1-(4-(3-isopropyl-2-(1H-pyrazolo[3,4-b]pyridin-4-yl)-1H-indol-5-yl)piperidin-1-yl)ethanone]",< 100,< 100,1000 to 50000
"CC(C)c1c(-c2ccn3nncc3c2)[nH]c2ccc(C3CCN(C(=O)CN(C)C)CC3)cc12 [Example 465, 1-(4-(2-([1,2,3]triazolo [1,5-a]pyridin-5-yl)-3-isopropyl-1H-indol-5-yl)piperidin-1-yl)-2-(dimethylamino)ethan-1-one]",< 100,100 to 1000,1000 to 50000

# From patent US11739098B2 (BRISTOL-MYERS SQUIBB COMPANY, priority 2017, dated 2023)
